According to ChEMBL document CHEMBL1148604 (J Med Chem, 2006):
In brackets after ≈: the same amount, converted by molar mass. Activity calls are given as the source filed them. The calls are words filed in the database; no cut-off is given here.

Tests used:
[1] = biological target: T1, Mycobacterial beta-ketoacyl-[acyl-carrier-protein] synthase III (Mycobacterium tuberculosis) (UniProt P9WNG3); experiment: Inhibitory activity against FabH from Mycobacterium tuberculosis H37Rv at 100 uM
T1 sequence (whole entry): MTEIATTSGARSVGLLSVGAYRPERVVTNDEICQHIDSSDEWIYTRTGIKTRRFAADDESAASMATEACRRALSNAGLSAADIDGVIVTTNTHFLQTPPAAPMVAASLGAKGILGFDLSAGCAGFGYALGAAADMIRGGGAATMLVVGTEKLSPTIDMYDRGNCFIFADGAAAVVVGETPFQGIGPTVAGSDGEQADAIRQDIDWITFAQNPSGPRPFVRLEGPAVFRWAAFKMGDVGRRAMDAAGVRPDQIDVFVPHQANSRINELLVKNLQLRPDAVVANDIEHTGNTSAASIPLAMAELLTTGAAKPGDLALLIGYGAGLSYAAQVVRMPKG

[2] = biological target: T2, 3-oxoacyl-[acyl-carrier-protein] synthase 3 (Escherichia coli) (UniProt C3TDZ2); experiment: Inhibitory activity against FabH from Escherichia coli ANSI at 100 uM
T2 sequence (whole entry): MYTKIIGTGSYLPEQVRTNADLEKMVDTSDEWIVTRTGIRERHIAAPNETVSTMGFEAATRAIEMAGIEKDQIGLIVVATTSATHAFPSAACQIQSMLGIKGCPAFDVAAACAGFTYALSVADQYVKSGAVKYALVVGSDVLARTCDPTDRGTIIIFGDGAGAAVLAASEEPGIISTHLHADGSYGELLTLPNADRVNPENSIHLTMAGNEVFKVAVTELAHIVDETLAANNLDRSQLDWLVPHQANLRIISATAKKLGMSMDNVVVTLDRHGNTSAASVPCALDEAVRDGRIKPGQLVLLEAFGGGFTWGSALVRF

[3] = biological target: T3, 3-oxoacyl-[acyl-carrier-protein] synthase 2 (Mycobacterium tuberculosis) (UniProt P9WQD7); experiment: Inhibitory activity against KasB from Mycobacterium tuberculosis H37Rv at 100 uM
T3 sequence (whole entry): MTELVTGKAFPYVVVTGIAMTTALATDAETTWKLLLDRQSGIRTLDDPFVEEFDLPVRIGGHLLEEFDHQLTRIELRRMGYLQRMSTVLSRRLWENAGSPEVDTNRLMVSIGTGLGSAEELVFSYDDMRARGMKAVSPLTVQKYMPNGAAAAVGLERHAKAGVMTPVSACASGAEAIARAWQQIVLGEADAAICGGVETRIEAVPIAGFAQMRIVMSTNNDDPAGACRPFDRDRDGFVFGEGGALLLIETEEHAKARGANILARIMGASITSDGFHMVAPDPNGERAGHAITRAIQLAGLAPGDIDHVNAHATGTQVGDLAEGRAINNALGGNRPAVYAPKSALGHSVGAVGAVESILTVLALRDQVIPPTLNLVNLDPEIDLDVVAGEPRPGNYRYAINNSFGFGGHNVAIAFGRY

[4] = test system: Mycobacterium tuberculosis; experiment: Inhibitory activity against Mycobacterium tuberculosis H37Rv; format: functional
[5] = biological target: T4, 3-oxoacyl-[acyl-carrier-protein] synthase 1 (Mycobacterium tuberculosis) (UniProt P9WQD9); experiment: Inhibitory activity against KasA from Mycobacterium tuberculosis H37Rv at 100 uM
T4 sequence (whole entry): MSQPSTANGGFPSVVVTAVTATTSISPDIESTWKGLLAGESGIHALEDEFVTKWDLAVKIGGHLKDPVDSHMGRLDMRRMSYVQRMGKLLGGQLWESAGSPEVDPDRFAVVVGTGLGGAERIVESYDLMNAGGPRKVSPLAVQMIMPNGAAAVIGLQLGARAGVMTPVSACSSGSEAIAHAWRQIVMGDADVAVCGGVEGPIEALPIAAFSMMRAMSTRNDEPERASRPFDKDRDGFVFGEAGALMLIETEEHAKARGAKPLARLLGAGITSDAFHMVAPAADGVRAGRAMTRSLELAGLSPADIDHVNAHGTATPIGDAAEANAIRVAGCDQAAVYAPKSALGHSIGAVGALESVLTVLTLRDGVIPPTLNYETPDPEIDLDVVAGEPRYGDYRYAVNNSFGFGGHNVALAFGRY

[6] = test system: Escherichia coli; experiment: Inhibitory activity against Escherichia coli ANSI; format: functional
[7] = biological target: T5, 3-oxoacyl-[acyl-carrier-protein] synthase 1 (Escherichia coli K-12) (UniProt P0A953); experiment: Inhibitory activity against FabB from Escherichia coli ANSI at 100 uM
T5 sequence (whole entry): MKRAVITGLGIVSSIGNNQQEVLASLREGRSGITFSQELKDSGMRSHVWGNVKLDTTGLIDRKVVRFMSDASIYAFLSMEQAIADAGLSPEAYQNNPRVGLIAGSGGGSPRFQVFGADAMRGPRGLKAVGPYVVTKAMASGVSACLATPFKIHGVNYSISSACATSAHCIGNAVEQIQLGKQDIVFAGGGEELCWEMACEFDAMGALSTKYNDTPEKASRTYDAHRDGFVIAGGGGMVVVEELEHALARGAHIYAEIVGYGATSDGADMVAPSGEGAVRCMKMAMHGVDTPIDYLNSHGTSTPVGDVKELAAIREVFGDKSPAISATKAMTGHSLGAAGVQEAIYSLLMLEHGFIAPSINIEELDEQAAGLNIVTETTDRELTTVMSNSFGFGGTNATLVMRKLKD

[8] = biological target: T6, 3-oxoacyl-[acyl-carrier-protein] synthase 3 (Escherichia coli, UniProt C3TDZ2); experiment: Inhibitory activity against FabH from Escherichia coli ANSI
T6 sequence (C3TDZ2 whole entry): T2 sequence (whole entry)

[9] = biological target: T7, 3-oxoacyl-[acyl-carrier-protein] synthase 1 (Escherichia coli K-12, UniProt P0A953); experiment: Inhibitory activity against FabB from Escherichia coli ANSI
T7 sequence (P0A953 whole entry): T5 sequence (whole entry)

[10] = biological target: T8, Mycobacterial beta-ketoacyl-[acyl-carrier-protein] synthase III (Mycobacterium tuberculosis, UniProt P9WNG3); experiment: Inhibitory activity against FabH from Mycobacterium tuberculosis H37Rv
T8 sequence (P9WNG3 whole entry): T1 sequence (whole entry)

[11] = biological target: T9, 3-oxoacyl-[acyl-carrier-protein] synthase 2 (Mycobacterium tuberculosis, UniProt P9WQD7); experiment: Inhibitory activity against KasB from Mycobacterium tuberculosis H37Rv
T9 sequence (P9WQD7 whole entry): T3 sequence (whole entry)

[12] = biological target: wild-type apo-KasA (Mycobacterium tuberculosis, UniProt P9WQD9); experiment: Inhibitory activity against KasA from Mycobacterium tuberculosis H37Rv

Row | SMILES | inhibition [1] | inhibition [2] | inhibition [3] | MIC [4] | inhibition [5] | MIC [6] | inhibition [7] | IC50 [8] | IC50 [9] | IC50 [10] | IC50 [11] | IC50 [12]
1 | C=CCC1(C)SC(=O)C(C)=C1O (stereo not given) | inactive | inactive | inactive | > 1000 µM | inactive | > 1000 µM | inactive |  |  |  |  | 
2 | CC1=C(O)SC(C)C1=O (stereo not given) [THIOLACTONE] | inactive | inactive | inactive | > 1000 µM | inactive | > 1000 µM | inactive |  |  |  |  | 
3 | CCC(CC)CC1(C)SC(O)=C(C)C1=O (stereo not given) | inactive | inactive | inactive | 1000 µM (≈ 228 µg/mL) | inactive | > 1000 µM | inactive |  |  |  |  | 
4 | CCCCCCCCCCCCCCC1(C)SC(O)=C(C)C1=O (stereo not given) |  |  | inactive | 1000 µM (≈ 341 µg/mL) | inactive | 200 µM (≈ 68.1 µg/mL) | < 30% | 100 µM | > 100 µM | 80 µM |  | 
5 | C=CC(C)CC1(C)SC(O)=C(C)C1=O (stereo not given) | inactive | inactive | inactive | > 1000 µM | inactive | > 1000 µM | inactive |  |  |  |  | 
6 | CCCCCCCCCCCCCC1(C)SC(O)=C(C)C1=O (stereo not given) |  |  | inactive | 500 µM (≈ 163 µg/mL) | inactive | > 200 µM | < 30% | 100 µM | > 100 µM | 80 µM |  | 
7 | C=C(C)CC1(C)SC(O)=C(C)C1=O (stereo not given) | inactive | inactive | inactive | > 1000 µM | inactive | > 1000 µM | inactive |  |  |  |  | 
8 | CC(C)=CCC/C(C)=C/CC1(C)SC(O)=C(C)C1=O (stereo not given) | inactive |  | inactive | > 1000 µM | inactive | > 1000 µM | inactive | 100 µM |  |  |  | 
9 | CC1=C(O)C(C)(C/C=C/c2ccccc2)SC1=O (stereo not given) | inactive | inactive | inactive | > 1000 µM | inactive | > 1000 µM | inactive |  |  |  |  | 
10 | C/C=C/CC1(C)SC(O)=C(C)C1=O (stereo not given) | inactive | inactive | inactive | > 1000 µM | inactive | > 1000 µM | inactive |  |  |  |  | 
11 | CC1=C(O)SC(C)(CC(C)C)C1=O (stereo not given) | inactive | inactive | inactive | > 1000 µM | inactive | > 1000 µM | inactive |  |  |  |  | 
12 | CC1=C(O)C(C)(C2CCCC2)SC1=O (stereo not given) | inactive | inactive | inactive | > 1000 µM | inactive | > 1000 µM | inactive |  |  |  |  | 
13 | CCCCCCCCCCC1(C)SC(O)=C(C)C1=O (stereo not given) | < 30% |  | inactive | 500 µM (≈ 142 µg/mL) | inactive | 100 µM (≈ 28.4 µg/mL) | inactive | 100 µM |  | > 100 µM |  | 
14 | CCCCCCCCCCCCC1(C)SC(O)=C(C)C1=O (stereo not given) |  |  | inactive | 1000 µM (≈ 313 µg/mL) | inactive | 25 µM (≈ 7.81 µg/mL) | inactive | 100 µM |  | 50 µM |  | 
15 | CC1=C(O)C(C)(CCc2ccccc2)SC1=O (stereo not given) |  |  |  | 1000 µM (≈ 248 µg/mL) |  | > 1000 µM |  | > 1000 µM | > 1000 µM | > 1000 µM | > 1000 µM | > 1000 µM
16 | CC1=C(O)C(C)(Cc2ccccc2C)SC1=O (stereo not given) |  |  |  | 1000 µM (≈ 248 µg/mL) |  | > 1000 µM |  | > 1000 µM | > 1000 µM | > 1000 µM | > 1000 µM | > 1000 µM
